In patent US7105527B2, “N4-acylcytosine nucleosides for treatment of viral infections” (priority 2001, dated 2006):
Like-named read-outs stand apart in the source and are kept apart here.

Assays:
[1] = system: HIV-1RF; experiment: Anti-HIV (in MT-2 cells) assay, viral RNA accumulation; assay type: cell-based
Protocol: In a second antiviral testing system, the potency of the compounds was determined by measurement of viral RNA accumulation in HIV-1RF infected MT-2 cells (Bacheler L T, Paul M, Otto M J, Jadhav P K, Stone B A & Miller J A (1994) An assay for HIV RNIn infected cell lysates, and its use for rapid evaluation of antiviral efficacy. Antivir. Chem. Chemother. 5:111–121). The virus titer was established to determine the dilution producing 15 to 30 ng/RNA per well of HIV RNIn 3 days of infection. HIV-1 RNA was quantified using biotinylated capture and alkaline phosphatase-derivatized reporter oligonucleotides as described previously (Charvet A-S, Camplo M, Faury P, Graciet J C, Mourier N, Chermann J C & Kraus J L (1994) Inhibition of human immunodeficiency virus type 1 replication by phosphonoformate- and phosphonoacetate-2′,3′-dideoxy-3′-thiacytidine conjugates. J. Med. Chem. 37:2216–2223). In a third system, the effect of analogs on the replication of HIV-1NL4-3 was determined via the InterCompany Consortium consensus p24 assay as previously described (Jadhav P K & MacKay M F (1997) Cyclic urea amide: HIV-1 protease inhibitors with low nanomolar potency against both wild types and protease inhibitor resistant mutants of HIV. J. Med. Chem. 40:181–190). Recombinant viruses were recovered by transfecting the appropriate NL4-3 plasmid by lipofection. Virus stocks recovered 7 to 10 days post-transfection were titered on MT-4 cells to determine if the dilution produced 1,000 to 3,000 ng p24 in 4 days. This dilution was then used in drug susceptibility assays, where drug was added 24 h post infection of cells, and p24 quantified by ELISA 3 days later.

[2] = system: MT-2 cells; experiment: Cytotoxicity assay in MT-2 cells; assay type: cell-based
Protocol: (§1) The toxicity of the compounds was assessed in Vero, human PBM, CEM (human lymphoblastoid), MT-2, and HepG2 cells, as described previously (Schinazi […]., Cannon D. L., Xie […]., Smith […]. […] Cycloheximide was included as positive cytotoxic control, and untreated cells exposed to solvent were included as negative controls. The cytotoxicity IC50 was obtained from the concentration-response curve using the median effective method described previously (Chou […]. […] Belen'kii M. S. & Schinazi R. F.

[3] = Cytotoxicity assay in PBM cells; assay type: cell-based, human; details: human, human PBM cells
Protocol: as §1

[4] = system: HIV-1LAl; experiment: Anti-HIV (in PBM cells) assay, reverse transcriptase readout; assay type: cell-based
Protocol: Anti-HIV-1 activity of the compounds was determined in human peripheral blood mononuclear (PBM) cells as described previously (Schinazi […]., Cannon D., Mathis R., Lloyd R. M. Jr., […]., St. Clair M., Wilson J., Furman P. A., Painter G., Choi […]. Antimicrob. Agents Chemother. 1992, 36, 2423; Schinazi […]., Cannon D., Xie […]., Smith G., Hahn E. Antimicrob. Agents Chemother. 1990, 34, 1061). Stock solutions ([…]) of the compounds were prepared in sterile DMSO and then diluted to the desired concentration in growth medium. […] Virus obtained from the cell supernatant was quantified on day 6 after infection by a reverse transcriptase assay using (rA)n.(dT)12.18 as template-primer. […] AZT was included as positive control. The antiviral EC50 and EC90 were obtained from the concentration-response curve using the median effective method described previously (Chou […]. Enzyme Regul. 1984, 22, 27-55; Belen'kii M. S. & Schinazi R. F. Antiviral Res. 1994, 25, 1-11).

[5] = Cytotoxicity assay in HepG2 cells; assay type: cell-based; details: human
Protocol: as §1

[6] = Cytotoxicity assay in Vero cells; assay type: cell-based; details: African green monkey
Protocol: as §1

[7] = Cytotoxicity assay in MT-2 cells; assay type: cell-based; details: human
Protocol: as §1

[8] = Cytotoxicity assay in CEM cells; assay type: cell-based, human; details: human, CEM lymphoblastoid cells
Protocol: as §1

[9] = system: human PBM cells; experiment: Cytotoxicity assay in PBM cells; assay type: cell-based
Protocol: as §1

[10] = system: HepG2 cells; experiment: Cytotoxicity assay in HepG2 cells; assay type: cell-based
Protocol: as §1

[11] = system: Vero cells; experiment: Cytotoxicity assay in Vero cells; assay type: cell-based
Protocol: as §1

[12] = system: CEM (human lymphoblastoid) cells; experiment: Cytotoxicity assay in CEM cells; assay type: cell-based
Protocol: as §1

[13] = Table 2, read-out: Cytotoxicity in different cells (IC50, μM) MT-2
[14] = Table 1, read-out: Cytotoxicity in different cells (IC50, μM) PBM
[15] = Human immunodeficiency virus 1, PBMC, Table 1, read-out: Anti-HIV-1 activity in different cells (EC90, μM) PBM
[16] = Table 1, read-out: Cytotoxicity in different cells (IC50, μM) HepG2
[17] = Human immunodeficiency virus 1, MT2, Table 1, EC90, MT-2 cells, read-out: Anti-HIV-1 activity in different cells (EC90, μM) MT-2
[18] = Table 1, read-out: Cytotoxicity in different cells (IC50, μM) Vero
[19] = Table 1, read-out: Cytotoxicity in different cells (IC50, μM) MT-2
[20] = Table 1, read-out: Cytotoxicity in different cells (IC50, μM) CEM
[21] = Table 1, read-out: Anti-HIV-1 activity in different cells (EC90, μM) PBM
[22] = Table 1, EC90, MT-2 cells, read-out: Anti-HIV-1 activity in different cells (EC90, μM) MT-2
[23] = Table 2, read-out: Cytotoxicity in different cells (IC50, μM) PBM
[24] = Human immunodeficiency virus 1, PBMC, Table 2, read-out: Anti-HIV-1 activity in different cells (EC90, μM) PBM
[25] = Table 2, read-out: Cytotoxicity in different cells (IC50, μM) HepG2
[26] = Human immunodeficiency virus 1, MT2, Table 2, EC90, MT-2 cells, read-out: Anti-HIV-1 activity in different cells (EC90, μM) MT-2
[27] = Table 2, read-out: Cytotoxicity in different cells (IC50, μM) Vero
[28] = Table 2, read-out: Cytotoxicity in different cells (IC50, μM) CEM

CCCCCCC(=O)Nc1nc(=O)n(C2C=CC(CO)O2)cc1F [Compound 59, β-D-2′,3′-Didehydro-2′,3′-dideoxy-5-fluoro-N^4-heptanoylcytidine]
EC90 ([1]; Table 2, EC90, MT-2 cells, read-out: Anti-HIV-1 activity in different cells (EC90, μM) MT-2): 0.23 µM
IC50 [2, 13]: 6.2 µM

O=C(Nc1nc(=O)n([C@H]2CC[C@@H](CO)O2)cc1F)C1CCCCC1 [Compound 33, β-D-N^4-(Cyclohexanecarbonyl)-2′,3′-dideoxy-5-fluorocytidine]
IC50 [3, 14]: 4.5 µM
EC90 [4, 15]: 0.086 µM
IC50 [5, 16]: 6.5 µM
EC90 [1, 17]: 0.3 µM
IC50 [6, 18]: 11.8 µM
IC50 [7, 19]: 50 µM
IC50 [8, 20]: 6.4 µM

O=C(Nc1nc(=O)n([C@H]2CC[C@@H](CO)O2)cc1F)c1ccco1 [Compound 29, β-D-2′,3′-Dideoxy-5-fluoro-N^4-(2-furoyl)cytidine]
IC50 [9, 14]: 16.9 µM
EC90 [4, 21]: 1.5 µM
IC50 [10, 16]: 31.1 µM
EC90 [1, 22]: 0.9 µM
IC50 [11, 18]: 29.6 µM
IC50 [2, 19]: > 50 µM
IC50 [12, 20]: 5.7 µM

O=C(Nc1nc(=O)n([C@H]2C=C[C@@H](CO)O2)cc1F)C1CCCC1 [Compound 57, β-D-N^4-(Cyclopentanecarbonyl)-2′,3′-didehydro-2′,3′-dideoxy-5-fluorocytidine]
IC50 [3, 23]: 52.9 µM
EC90 [4, 24]: 0.4 µM
IC50 [5, 25]: > 100 µM
EC90 [1, 26]: 0.51 µM
IC50 [6, 27]: 87.6 µM
IC50 [7, 13]: > 50 µM
IC50 [8, 28]: 19.6 µM

Cc1ccc(C(=O)Nc2nc(=O)n([C@H]3C=C[C@@H](CO)O3)cc2F)cc1 [Compound 48, β-D-2′,3′-Didehydro-2′,3′-dideoxy-5-fluoro-N^4-p-toluoylcytidine]
IC50 [3, 23]: 13.2 µM
EC90 [4, 24]: 0.32 µM
IC50 [5, 25]: > 100 µM
EC90 [1, 26]: 0.21 µM
IC50 [6, 27]: > 100 µM
IC50 [7, 13]: > 50 µM
IC50 [8, 28]: 31.9 µM

O=C(Nc1nc(=O)n([C@H]2CC[C@@H](CO)O2)cc1F)c1cccs1 [Compound 30, β-D-2′,3′-Dideoxy-5-fluoro-N^4-(2-thiophenecarbonyl)cytidine]
IC50 [3, 14]: 19.4 µM
EC90 [4, 15]: 0.052 µM
IC50 [5, 16]: 37.9 µM
EC90 [1, 17]: 0.4 µM
IC50 [6, 18]: 23.9 µM
IC50 [7, 19]: > 50 µM
IC50 [8, 20]: 13.7 µM

CC(C)(C)c1ccc(C(=O)Nc2nc(=O)n([C@H]3CC[C@@H](CO)O3)cc2F)cc1 [Compound 28, β-D-N^4-(4-tert-Butylbenzoyl)-2,3′-dideoxy-5-fluorocytidine]
IC50 [9, 14]: 12.5 µM
EC90 [4, 21]: 0.088 µM
IC50 [10, 16]: 21.3 µM
EC90 [1, 22]: 0.6 µM
IC50 [11, 18]: 25.9 µM
IC50 [12, 20]: 6 µM

Cc1cccc(C(=O)Nc2nc(=O)n([C@H]3CC[C@@H](CO)O3)cc2F)c1 [Compound 23, β-D-2′,3′-Dideoxy-5-fluoro-N-m-toluoylcytidine]
IC50 [3, 14]: 8.4 µM
EC90 [4, 15]: 0.012 µM
IC50 [5, 16]: > 100 µM
EC90 [1, 17]: 0.24 µM
IC50 [6, 18]: 61.1 µM
IC50 [7, 19]: > 50 µM
IC50 [8, 20]: > 100 µM

O=C(Nc1nc(=O)n([C@H]2CC[C@@H](CO)O2)cc1F)c1cc2ccccc2s1 [Compound 32, β-D-2′,3′-Dideoxy-5-fluoro-N^4-(benzo[b]thiophene-2-carbonyl)cytidine]
IC50 [3, 14]: 23.5 µM
EC90 [4, 15]: 0.19 µM
IC50 [5, 16]: 1.3 µM
EC90 [1, 17]: 0.3 µM
IC50 [6, 18]: 39.6 µM
IC50 [7, 19]: > 50 µM
IC50 [8, 20]: 4.5 µM

COc1ccc(C(=O)Nc2nc(=O)n([C@H]3C=C[C@@H](CO)O3)cc2F)cc1 [Compound 42, β-D-N^4-p-Anisoyl-2′,3′-didehydro-2′,3′dideoxy-5-fluorocytidine]
IC50 [3, 23]: > 100 µM
EC90 [4, 24]: 0.7 µM
IC50 [5, 25]: > 100 µM
EC90 [1, 26]: 0.58 µM
IC50 [7, 13]: > 50 µM

CCCCc1ccc(C(=O)Nc2nc(=O)n([C@H]3C=C[C@@H](CO)O3)cc2F)cc1 [Compound 52, β-D-N^4-(4-n-Butylbenzoyl)-2′,3′-didehydro-2,3′-dideoxy-5-fluoro-^4cytidine]
IC50 [9, 23]: 7.3 µM
EC90 ([4]; Table 2, read-out: Anti-HIV-1 activity in different cells (EC90, μM) PBM): 3.1 µM
IC50 [10, 25]: 5.1 µM
IC50 [11, 27]: 29.4 µM
IC50 [12, 28]: 8.5 µM

CCCCc1ccc(C(=O)Nc2nc(=O)n([C@H]3CC[C@@H](CO)O3)cc2F)cc1 [Compound 27, β-D-N^4-(4-n-Butylbenzoyl)-2,3′-dideoxy-5-fluorocytidine]
IC50 [9, 14]: 1.1 µM
EC90 [4, 21]: 0.31 µM
IC50 [10, 16]: 1.9 µM
IC50 [11, 18]: 3.2 µM
IC50 [12, 20]: 1.3 µM

Cc1cccc(C(=O)Nc2nc(=O)n([C@H]3C=C[C@@H](CO)O3)cc2F)c1 [Compound 49, β-D-2,3′-Didehydro-2,3′-dideoxy-5-fluoro-N^4-m-toluoylcytidine]
IC50 [3, 23]: 57.1 µM
EC90 [4, 24]: 0.7 µM
IC50 [5, 25]: > 100 µM
EC90 ([1]; Human immunodeficiency virus 1, MT2, read-out: Anti-HIV-1 activity in different cells (EC90, μM) MT-2): 0.8 µM
IC50 [6, 27]: 149 µM
IC50 [7, 13]: > 50 µM
IC50 [8, 28]: 34.9 µM

O=C(Nc1nc(=O)n([C@H]2C=C[C@@H](CO)O2)cc1F)c1cccc([N+](=O)[O-])c1 [Compound 46, β-D-2′,3′-Didehydro-2,3′-dideoxy-5-fluoro-N^4-(3-nitrobenzoyl)cytidine]
IC50 [3, 23]: 11.9 µM
EC90 [4, 24]: 0.93 µM
IC50 [5, 25]: > 100 µM
EC90 [1, 26]: 0.58 µM
IC50 [6, 27]: > 100 µM
IC50 [7, 13]: > 50 µM
IC50 [8, 28]: 54.5 µM

O=C(Nc1nc(=O)n([C@H]2C=C[C@@H](CO)O2)cc1F)C1CCCCC1 [Compound 58, β-D-N-(Cyclohexanecarbonyl)-2′ 3′-didehydro-2′,3′-dideoxy-5-fluorocytidine]
IC50 [3, 23]: 11.7 µM
EC90 [4, 24]: 0.6 µM
IC50 [5, 25]: > 100 µM
EC90 [1, 26]: 0.38 µM
IC50 [6, 27]: > 100 µM
IC50 [7, 13]: > 50 µM
IC50 [8, 28]: 11.2 µM
